Measurements published in PubChem BioAssay (NCI).
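Five compound concentrations were applied to cells in 96-well plates for 48 hours; endpoints were derived by simple linear interpolation of the resulting dose-response curve. TGI marks complete inhibition of growth.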

Key:
Assay in all cases: NCI tumour cell line growth inhibition, 48 h
HS 578T breast = test system: HS 578T breast
NCI-H23 lung = test system: NCI-H23 lung
OVCAR-5 ovarian = test system: OVCAR-5 ovarian
HOP-62 NSCLC = test system: HOP-62 NSCLC
SF-268 CNS = test system: SF-268 CNS
M14 melanoma = test system: M14 melanoma
SF-539 CNS = test system: SF-539 CNS
NCI-H522 lung = test system: NCI-H522 lung
SNB-19 CNS = test system: SNB-19 CNS
PC-3 prostate = test system: PC-3 prostate
KM12 colon = test system: KM12 colon
DU-145 prostate = test system: DU-145 prostate
CAKI-1 renal = test system: CAKI-1 renal
MDA-N = test system: MDA-N
MOLT-4 leukemia = test system: MOLT-4 leukemia
HOP-92 NSCLC = test system: HOP-92 NSCLC
NCI-H460 lung = test system: NCI-H460 lung
SK-MEL-2 melanoma = test system: SK-MEL-2 melanoma
A549 NSCLC = test system: A549 NSCLC
IGROV1 ovarian = test system: IGROV1 ovarian
HCT-15 colon = test system: HCT-15 colon
SF-295 CNS = test system: SF-295 CNS
A498 renal = test system: A498 renal
EKVX NSCLC = test system: EKVX NSCLC
NCI/ADR-RES ovarian = test system: NCI/ADR-RES ovarian
UACC-62 melanoma = test system: UACC-62 melanoma
786-0 renal = test system: 786-0 renal
UO-31 renal = test system: UO-31 renal
SK-MEL-28 melanoma = test system: SK-MEL-28 melanoma
U251 CNS = test system: U251 CNS
OVCAR-4 ovarian = test system: OVCAR-4 ovarian
TK-10 renal = test system: TK-10 renal
SK-OV-3 ovarian = test system: SK-OV-3 ovarian
MDA-MB-231 breast = test system: MDA-MB-231 breast
LOX IMVI melanoma = test system: LOX IMVI melanoma
T-47D breast = test system: T-47D breast
MDA-MB-435 = test system: MDA-MB-435
SW-620 colon = test system: SW-620 colon
SN12C renal = test system: SN12C renal
SR leukemia = test system: SR leukemia
COLO 205 colon = test system: COLO 205 colon
BT-549 breast = test system: BT-549 breast
OVCAR-8 ovarian = test system: OVCAR-8 ovarian
HT29 colon = test system: HT29 colon
SK-MEL-5 melanoma = test system: SK-MEL-5 melanoma
ACHN renal = test system: ACHN renal
CCRF-CEM leukemia = test system: CCRF-CEM leukemia
MCF7 breast = test system: MCF7 breast
HCT-116 colon = test system: HCT-116 colon
K-562 leukemia = test system: K-562 leukemia
MALME-3M melanoma = test system: MALME-3M melanoma
SNB-75 CNS = test system: SNB-75 CNS
OVCAR-3 ovarian = test system: OVCAR-3 ovarian
RPMI-8226 leukemia = test system: RPMI-8226 leukemia
RXF 393 renal = test system: RXF 393 renal
UACC-257 melanoma = test system: UACC-257 melanoma
HL-60(TB) leukemia = test system: HL-60(TB) leukemia
NCI-H226 lung = test system: NCI-H226 lung

Compound CC(C)(C)c1ccc(O)c(C[N+](C)(C)C)c1 has a TGI (HS 578T breast) of over 100 µM, a TGI (NCI-H23 lung) of over 100 µM and a TGI (OVCAR-5 ovarian) of over 100 µM. The TGI (HOP-62 NSCLC) was over 100 µM, the TGI (SF-268 CNS) was over 100 µM and the TGI (M14 melanoma) was over 100 µM. For the same compound, the TGI (SF-539 CNS) was over 100 µM, the TGI (NCI-H522 lung) was over 100 µM and the TGI (SNB-19 CNS) was over 100 µM. It also gave a TGI (PC-3 prostate) of over 100 µM, a TGI (KM12 colon) of over 100 µM and a TGI (DU-145 prostate) of over 100 µM. For the same compound, the TGI (CAKI-1 renal) was over 100 µM, the TGI (MDA-N) was over 100 µM and the TGI (MOLT-4 leukemia) was over 100 µM. It also gave a TGI (HOP-92 NSCLC) of over 100 µM, a TGI (NCI-H460 lung) of over 100 µM and a TGI (SK-MEL-2 melanoma) of over 100 µM. It also gave a TGI (A549 NSCLC) of over 100 µM, a TGI (IGROV1 ovarian) of over 100 µM and a TGI (HCT-15 colon) of over 100 µM. It also gave a TGI (SF-295 CNS) of over 100 µM, a TGI (A498 renal) of over 100 µM and a TGI (EKVX NSCLC) of over 100 µM. It also gave a TGI (NCI/ADR-RES ovarian) of over 100 µM, a TGI (UACC-62 melanoma) of over 100 µM and a TGI (786-0 renal) of over 100 µM. It also gave a TGI (UO-31 renal) of over 100 µM, a TGI (SK-MEL-28 melanoma) of over 100 µM and a TGI (U251 CNS) of over 100 µM. It also gave a TGI (OVCAR-4 ovarian) of over 100 µM, a TGI (TK-10 renal) of over 100 µM and a TGI (SK-OV-3 ovarian) of over 100 µM. The TGI (MDA-MB-231 breast) was over 100 µM, the TGI (LOX IMVI melanoma) was over 100 µM and the TGI (T-47D breast) was over 100 µM. The TGI (MDA-MB-435) was over 100 µM, the TGI (SW-620 colon) was over 100 µM and the TGI (SN12C renal) was over 100 µM. The TGI (SR leukemia) was over 100 µM, the TGI (COLO 205 colon) was over 100 µM and the TGI (BT-549 breast) was over 100 µM. For the same compound, the TGI (OVCAR-8 ovarian) was over 100 µM, the TGI (HT29 colon) was over 100 µM and the TGI (SK-MEL-5 melanoma) was over 100 µM. For the same compound, the TGI (ACHN renal) was over 100 µM, the TGI (CCRF-CEM leukemia) was over 100 µM and the TGI (MCF7 breast) was over 100 µM. The TGI (HCT-116 colon) was over 100 µM, the TGI (K-562 leukemia) was over 100 µM and the TGI (MALME-3M melanoma) was over 100 µM. The TGI (SNB-75 CNS) was over 100 µM, the TGI (OVCAR-3 ovarian) was over 100 µM and the TGI (RPMI-8226 leukemia) was over 100 µM. For the same compound, the TGI (RXF 393 renal) was over 100 µM.

C=C(Br)CN(C)CC(=C)Br gave a TGI (HS 578T breast) of over 100 µM, a TGI (NCI-H23 lung) of over 100 µM and a TGI (OVCAR-5 ovarian) of over 100 µM. It also gave a TGI (HOP-62 NSCLC) of over 100 µM, a TGI (SF-268 CNS) of over 100 µM and a TGI (M14 melanoma) of over 100 µM. It also gave a TGI (NCI-H522 lung) of over 100 µM, a TGI (SNB-19 CNS) of over 100 µM and a TGI (PC-3 prostate) of over 100 µM. It also gave a TGI (KM12 colon) of over 100 µM, a TGI (DU-145 prostate) of over 100 µM and a TGI (CAKI-1 renal) of over 100 µM. It also gave a TGI (MDA-N) of over 100 µM, a TGI (MOLT-4 leukemia) of over 100 µM and a TGI (HOP-92 NSCLC) of over 100 µM. It also gave a TGI (NCI-H460 lung) of over 100 µM, a TGI (SK-MEL-2 melanoma) of over 100 µM and a TGI (A549 NSCLC) of over 100 µM. For the same compound, the TGI (UACC-257 melanoma) was over 100 µM, the TGI (IGROV1 ovarian) was over 100 µM and the TGI (HCT-15 colon) was over 100 µM. It also gave a TGI (SF-295 CNS) of over 100 µM, a TGI (A498 renal) of over 100 µM and a TGI (EKVX NSCLC) of over 100 µM. It also gave a TGI (NCI/ADR-RES ovarian) of over 100 µM, a TGI (UACC-62 melanoma) of over 100 µM and a TGI (786-0 renal) of over 100 µM. The TGI (UO-31 renal) was over 100 µM, the TGI (SK-MEL-28 melanoma) was over 100 µM and the TGI (U251 CNS) was over 100 µM. The TGI (OVCAR-4 ovarian) was over 100 µM, the TGI (TK-10 renal) was over 100 µM and the TGI (SK-OV-3 ovarian) was over 100 µM. For the same compound, the TGI (MDA-MB-231 breast) was over 100 µM, the TGI (LOX IMVI melanoma) was over 100 µM and the TGI (T-47D breast) was over 100 µM. The TGI (MDA-MB-435) was over 100 µM, the TGI (SW-620 colon) was over 100 µM and the TGI (SN12C renal) was over 100 µM. The TGI (SR leukemia) was over 100 µM, the TGI (COLO 205 colon) was over 100 µM and the TGI (BT-549 breast) was over 100 µM. For the same compound, the TGI (OVCAR-8 ovarian) was over 100 µM, the TGI (HT29 colon) was over 100 µM and the TGI (SK-MEL-5 melanoma) was over 100 µM. For the same compound, the TGI (ACHN renal) was over 100 µM, the TGI (CCRF-CEM leukemia) was over 100 µM and the TGI (MCF7 breast) was over 100 µM. The TGI (HCT-116 colon) was over 100 µM, the TGI (K-562 leukemia) was over 100 µM and the TGI (HL-60(TB) leukemia) was over 100 µM. It also gave a TGI (MALME-3M melanoma) of over 100 µM, a TGI (SNB-75 CNS) of over 100 µM and a TGI (OVCAR-3 ovarian) of over 100 µM. The TGI (RPMI-8226 leukemia) was over 100 µM and the TGI (RXF 393 renal) was over 100 µM.

CCCCC/C=C\C=C1\C(=O)C=C[C@@H]1C/C=C\CCCC(=O)O was tested, and the TGI (HS 578T breast) was 13.4 µM, the TGI (NCI-H23 lung) was 15.5 µM and the TGI (OVCAR-5 ovarian) was 9.72 µM. The TGI (HOP-62 NSCLC) was 8.62 µM, the TGI (SF-268 CNS) was 13.6 µM and the TGI (M14 melanoma) was 15.1 µM. For the same compound, the TGI (SF-539 CNS) was 12.8 µM, the TGI (NCI-H226 lung) was 14.8 µM and the TGI (SNB-19 CNS) was 12.1 µM. For the same compound, the TGI (PC-3 prostate) was 5.13 µM, the TGI (KM12 colon) was 11.9 µM and the TGI (DU-145 prostate) was 15.5 µM. The TGI (CAKI-1 renal) was 14.9 µM, the TGI (MDA-N) was 7.14 µM and the TGI (MOLT-4 leukemia) was 60 µM. For the same compound, the TGI (NCI-H460 lung) was 16.5 µM, the TGI (SK-MEL-2 melanoma) was 9.85 µM and the TGI (A549 NSCLC) was 18.7 µM. The TGI (UACC-257 melanoma) was 14.7 µM, the TGI (IGROV1 ovarian) was 8.93 µM and the TGI (HCT-15 colon) was 14.9 µM. The TGI (SF-295 CNS) was 11.5 µM, the TGI (A498 renal) was 21.4 µM and the TGI (EKVX NSCLC) was 5.61 µM. It also gave a TGI (NCI/ADR-RES ovarian) of 2.66 µM, a TGI (UACC-62 melanoma) of 12 µM and a TGI (786-0 renal) of 9.73 µM. It also gave a TGI (UO-31 renal) of 13.4 µM, a TGI (SK-MEL-28 melanoma) of 13.9 µM and a TGI (U251 CNS) of 8.39 µM. It also gave a TGI (OVCAR-4 ovarian) of 6.28 µM, a TGI (TK-10 renal) of 18 µM and a TGI (SK-OV-3 ovarian) of 14.4 µM. For the same compound, the TGI (MDA-MB-231 breast) was 18.7 µM, the TGI (LOX IMVI melanoma) was 8.19 µM and the TGI (T-47D breast) was 24.5 µM. It also gave a TGI (MDA-MB-435) of 9.16 µM, a TGI (SW-620 colon) of 9.09 µM and a TGI (SN12C renal) of 8.06 µM. For the same compound, the TGI (SR leukemia) was 5.53 µM, the TGI (COLO 205 colon) was 9.36 µM and the TGI (BT-549 breast) was 5.13 µM. For the same compound, the TGI (OVCAR-8 ovarian) was 3.73 µM, the TGI (HT29 colon) was 12 µM and the TGI (SK-MEL-5 melanoma) was 11.2 µM. For the same compound, the TGI (ACHN renal) was 9.48 µM, the TGI (CCRF-CEM leukemia) was 3.28 µM and the TGI (MCF7 breast) was 12.9 µM. The TGI (HCT-116 colon) was 2.74 µM, the TGI (K-562 leukemia) was 60 µM and the TGI (HL-60(TB) leukemia) was 17.9 µM. The TGI (MALME-3M melanoma) was 25 µM, the TGI (SNB-75 CNS) was 17.7 µM and the TGI (OVCAR-3 ovarian) was 9.82 µM. The TGI (RPMI-8226 leukemia) was 3.15 µM and the TGI (RXF 393 renal) was 6.93 µM.
